The values below come from US12030883B2, “Hetero-tricyclic compounds as inhibitors of KRAS” (Incyte Corporation, priority 2021, dated 2024).

The structures appear in SMILES notation.

In one experiment the target is KRAS G12D (Homo sapiens, UniProt P01116, G12D). Nature of the experiment: GDP-GTP exchange assay, KRAS G12D (bodipy-GDP/GppNHp, SOS1). The format is biochemical. Conditions: bodipy-loaded KRAS G12D 2.5 nM, 4 hours pre-incubation with inhibitor, SOS1 150 nM, GppNHp 500 uM; read-out: G12D_exchange (KRAS_G12D exchange assay IC50). The procedure: (§1) The inhibitor potency of the exemplified compounds was determined in a fluorescence based guanine nucleotide exchange assay, which measures the exchange of bodipy-GDP (fluorescently labeled GDP) for GppNHp (Non-hydrolyzable GTP analog) to generate the active state of KRAS in the presence of SOS1 (guanine nucleotide exchange factor). Inhibitors were serially diluted in DMSO and a volume of 0.1 μL was transferred to the wells of a black low volume 384-well plate. Five μL/well volume of bodipy-loaded KRAS G12D or G12V diluted to a final concentration of 2.5 nM in assay buffer (25 mM Hepes pH 7.5, 50 mM NaCl, 10 mM MgCl2 and 0.01% Brij-35) was added to the plate and pre-incubated with inhibitor for 4 hours (G12D) or 3 hours (G12V) at ambient temperature. A cyclic peptide described to selectively bind G12D mutant (Sakamoto et al., BBRC 484.3 (2017), 605-611) or internal compounds with confirmed binding were used as positive controls in the assay plates. The exchange was initiated by the addition of a 5 μL/well volume containing 1 mM GppNHp and 300 nM SOS1 in assay buffer. The 10 μL/well reaction concentration of the bodipy-loaded KRAS G12D or G12V, GppNHp, and SOS1 were 2.5 nM, 500 uM, and 150 nM, respectively.
Chain of KRAS G12D (P01116 1-188 isoform P01116-2 G12D): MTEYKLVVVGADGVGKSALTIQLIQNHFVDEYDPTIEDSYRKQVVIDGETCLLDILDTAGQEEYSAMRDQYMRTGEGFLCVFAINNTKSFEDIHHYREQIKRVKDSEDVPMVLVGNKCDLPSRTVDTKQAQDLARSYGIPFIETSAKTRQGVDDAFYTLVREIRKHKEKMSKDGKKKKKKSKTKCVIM
(§2) Either GraphPad prism or XLfit was used to analyze the data. The IC50 values were derived by fitting the data to a four parameter logistic equation producing a sigmoidal dose-response curve with a variable Hill coefficient. Prism equation: Y=Bottom+(Top−Bottom)/(1+10^((LogIC50-X)*Hill slope)); XLfit equation: Y=(A+((B−A)/(1+((X/C)^D)))) where X is the logarithm of inhibitor concentration and Y is the response.

In another experiment the target is KRAS G12V (Homo sapiens, UniProt P01116, G12V). Nature of the experiment: GDP-GTP exchange assay, KRAS G12V (bodipy-GDP/GppNHp, SOS1). It counts as biochemical. Conditions: bodipy-loaded KRAS G12V 2.5 nM, 3 hours pre-incubation with inhibitor, SOS1 150 nM, GppNHp 500 uM; read-out: G12V_exchange (KRAS_G12V exchange assay IC50). As to the method:
as §1, §2

Chain of KRAS G12V (P01116 1-188 isoform P01116-2 G12V): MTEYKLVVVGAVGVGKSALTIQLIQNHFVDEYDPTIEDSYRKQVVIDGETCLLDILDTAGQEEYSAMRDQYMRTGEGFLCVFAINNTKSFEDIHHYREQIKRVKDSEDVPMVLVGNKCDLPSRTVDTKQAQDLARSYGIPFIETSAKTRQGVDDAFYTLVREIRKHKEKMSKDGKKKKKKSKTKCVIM

In general, IC50 refers to the concentration at which inhibition is half-maximal. In the case of `C[C@H](Oc1nc2c(F)c(-c3cccc4ccc(F)cc34)c(CCC#N)cc2c2c1NC(=O)CN2C1C2CNC1C2)[C@@H]1CCCN1C` (single isomer, unassigned) [Example 3b], the IC50 on KRAS G12D and on KRAS G12V was 100 to 1000 nM each time.
For the molecule `N#CCCc1cc2c3c(c(OC[C@@]45CCCN4C[C@H](F)C5)nc2c(F)c1-c1cc(O)cc2ccccc12)NC(=O)CN3C1C2CNC1C2` (single isomer, unassigned) [Example 10d], the IC50 is 1000 to 5000 nM on KRAS G12D and 5000 to 10000 nM at KRAS G12V.
The like results for `C[C@@H](CN(C)C)Oc1nc2c(F)c(-c3cc(O)cc4ccccc34)c(CCC#N)cc2c2c1CCCN2C1C2CNC1C2` (single isomer, unassigned) [Example 16a] were, in that order, 5000 to 10000 nM and 5000 to 10000 nM.
For the molecule `N#CCCc1cc2c3c(c(OC[C@@]45CCCN4C[C@H](F)C5)nc2c(F)c1-c1cc(O)cc2ccccc12)NC(=O)CN3C1C2CNC1C2` (single isomer, unassigned) [Example 10c], the IC50 on KRAS G12D and at KRAS G12V was 100 to 1000 nM each time.
In the case of `C[C@@H](CN(C)C)Oc1nc2c(F)c(-c3cc(O)cc4ccccc34)c(CCC#N)cc2c2c1NC(=O)CN2C1C2CNC1C2` (single isomer, unassigned) [Example 11d], the concentration for half-maximal inhibition (IC50) at KRAS G12D and at KRAS G12V was 100 to 1000 nM each time.
For `CN(C)C1CN(c2nc3c(F)c(-c4cc(O)cc5ccccc45)c(CCC#N)cc3c3c2NC(=O)CN3C2C3CNC2C3)C1` (single isomer, unassigned) [Example 13b, 3-(1-((endo)-2-Azabicyclo[2.1.1]hexan-5-yl)-5-(3-(dimethylamino)azetidin-1-yl)-7-fluoro-8-(3-hydroxynaphthalen-1-yl)-3-oxo-1,2,3,4-tetrahydropyrazino[2,3-c]quinolin-9-yl)propanenitrile], the IC50 on KRAS G12D and on KRAS G12V was 100 to 1000 nM throughout.
Turning to `CC1Cc2c(OC[C@@H]3CCCN3C)nc3c(F)c(-c4cc(O)cc5ccccc45)c(CCC#N)cc3c2N(C2C3CNC2C3)C1` (single isomer, unassigned) [Example 14d], the IC50 on KRAS G12D and at KRAS G12V was 1000 to 5000 nM throughout.
Take `C[C@@H](CN(C)C)Oc1nc2c(F)c(-c3cc(O)cc4ccccc34)c(CCC#N)cc2c2c1NC(=O)CN2C1C2CNC1C2` (single isomer, unassigned) [Example 11b]: the IC50 on KRAS G12D and on KRAS G12V was 5000 to 10000 nM each time.
Regarding `Cc1cc2c(nc(O[C@@H](C)[C@@H]3CCCN3C)c3c(=O)c(Nc4cnn(C)c4)cn([C@H]4[C@H]5CN[C@@H]4C5)c32)c(F)c1-c1cccc2c1C(C#N)CCC2` (single isomer, unassigned) [Example 26a], the IC50 at KRAS G12D and at KRAS G12V was at most 100 nM each time.
Take `N#CCCc1cc2c3c(cnc2c(F)c1-c1cc(O)cc2ccccc12)N(c1ccccc1)C(=O)CN3[C@@H]1[C@@H]2CN[C@H]1C2` (relative stereo) [Example 17, 3-(1-((endo)-2-Azabicyclo[2.1.1]hexan-5-yl)-7-fluoro-8-(3-hydroxynaphthalen-1-yl)-3-oxo-4-phenyl-1,2,3,4-tetrahydropyrazino[2,3-c]quinolin-9-yl)propanenitrile]: the IC50 on KRAS G12D and at KRAS G12V was 100 to 1000 nM throughout.
For `N#CCCc1cc2c3c(cnc2c(F)c1-c1cc(O)cc2ccccc12)N(CCC1CCNCC1)C(=O)CN3C1C2CNC1C2` (single isomer, unassigned) [Example 18a, 3-(1-((endo)-2-Azabicyclo[2.1.1]hexan-5-yl)-7-fluoro-8-(3-hydroxynaphthalen-1-yl)-3-oxo-4-(2-(piperidin-4-yl)ethyl)-1,2,3,4-tetrahydropyrazino[2,3-c]quinolin-9-yl)propanenitrile], the values for the IC50 at KRAS G12D and on KRAS G12V were at most 100 nM and 100 to 1000 nM, respectively.
In the case of `C[C@@H](CN(C)C)Oc1nc2c(F)c(-c3cc(O)cc4ccccc34)c(CCC#N)cc2c2c1NC(=O)CN2C1C2CNC1C2` (single isomer, unassigned) [Example 11a], the 50% inhibitory concentration (IC50) at KRAS G12D and on KRAS G12V was 5000 to 10000 nM in each case.
For the molecule `C[C@H](Oc1nc2c(F)c(-c3cccc(Cl)c3Cl)c(CCC#N)cc2c2c1NC(=O)CN2C1C2CNC1C2)[C@@H]1CCCN1C` (single isomer, unassigned) [Example 2a], the IC50 on KRAS G12D and at KRAS G12V was 100 to 1000 nM in each case.
As to `C[C@H](Oc1nc2c(F)c(-c3cc(O)cc4ccccc34)c(CCC#N)cc2c2c1CCCN2C1C2CNC1C2)[C@@H]1CCCN1C` (single isomer, unassigned) [Example 15a], the concentration for half-maximal inhibition (IC50) at KRAS G12D and on KRAS G12V was 1000 to 5000 nM in each case.
On to `Cn1cnc(-c2nc3c(F)c(-c4cc(O)cc5ccccc45)c(CCC#N)cc3c3c2NC(=O)CN3C2C3CNC2C3)c1` (single isomer, unassigned) [Example 7b, 3-(1-((endo)-2-Azabicyclo[2.1.1]hexan-5-yl)-7-fluoro-8-(3-hydroxynaphthalen-1-yl)-5-(1-methyl-1H-imidazol-4-yl)-3-oxo-1,2,3,4-tetrahydropyrazino[2,3-c]quinolin-9-yl)propanenitrile], for which the values for the IC50 on KRAS G12D and on KRAS G12V were 100 to 1000 nM and 1000 to 5000 nM, respectively.
With `N#CCCc1cc2c3c(c(Cc4ccccc4)nc2c(F)c1-c1cc(O)cc2ccccc12)NC(=O)CN3C1C2CNC1C2` (single isomer, unassigned) [Example 8b, 3-(5-Benzyl-1-((endo)-2-azabicyclo[2.1.1]hexan-5-yl)-7-fluoro-8-(3-hydroxynaphthalen-1-yl)-3-oxo-1,2,3,4-tetrahydropyrazino[2,3-c]quinolin-9-yl)propanenitrile], the IC50 at KRAS G12D and at KRAS G12V was 5000 to 10000 nM in each case.
In the case of `CC1Cc2c(OC[C@@H]3CCCN3C)nc3c(F)c(-c4cc(O)cc5ccccc45)c(CCC#N)cc3c2N(C2C3CNC2C3)C1` (single isomer, unassigned) [Example 14c], the IC50 at KRAS G12D was in the range of 1000 to 5000 nM; at KRAS G12V, 5000 to 10000 nM.
As for `N#CCCc1cc2c3c(cnc2c(F)c1-c1cc(O)cc2ccccc12)N(CC(N)=O)C(=O)CN3C1C2CNC1C2` (single isomer, unassigned) [Example 19a, 2-(1-((endo)-2-Azabicyclo[2.1.1]hexan-5-yl)-9-(2-cyanoethyl)-7-fluoro-8-(3-hydroxynaphthalen-1-yl)-3-oxo-2,3-dihydropyrazino[2,3-c]quinolin-4(1H)-yl)acetamide], the IC50 at KRAS G12D is at most 100 nM; at KRAS G12V, 100 to 1000 nM.
In the case of `CNC(=O)c1ccc(-c2nc3c(F)c(-c4cc(O)cc5ccccc45)c(CCC#N)cc3c3c2NC(=O)CN3C2C3CNC2C3)cn1` (single isomer, unassigned) [Example 5b, 5-(1-((endo)-2-Azabicyclo[2.1.1]hexan-5-yl)-9-(2-cyanoethyl)-7-fluoro-8-(3-hydroxynaphthalen-1-yl)-3-oxo-1,2,3,4-tetrahydropyrazino[2,3-c]quinolin-5-yl)-N-methylpicolinamide], the IC50 on KRAS G12D and at KRAS G12V was 1000 to 5000 nM each time.
`N#CCCc1cc2c3c(c(Cc4ccccc4)nc2c(F)c1-c1cc(O)cc2ccccc12)NC(=O)CN3C1C2CNC1C2` (single isomer, unassigned) [Example 8a, 3-(5-Benzyl-1-((endo)-2-azabicyclo[2.1.1]hexan-5-yl)-7-fluoro-8-(3-hydroxynaphthalen-1-yl)-3-oxo-1,2,3,4-tetrahydropyrazino[2,3-c]quinolin-9-yl)propanenitrile]: the IC50 at KRAS G12D was 100 to 1000 nM; at KRAS G12V it was 1000 to 5000 nM.
Take `C[C@H](Oc1nc2c(F)c(-c3cc(O)cc4ccc(F)cc34)c(CCC#N)cc2c2c1NC(=O)CN2C1C2CNC1C2)[C@@H]1CCCN1C` (single isomer, unassigned) [Example 4a]: the IC50 at KRAS G12D and on KRAS G12V was 1000 to 5000 nM each time.
For the molecule `CN1CCC[C@H]1COc1nc2c(F)c(-c3cc(O)cc4ccccc34)c(CCC#N)cc2c2c1CCCN2C1C2CNC1C2` (single isomer, unassigned) [Example 12a], the half-inhibitory concentration (IC50) on KRAS G12D is 1000 to 5000 nM; at KRAS G12V, 5000 to 10000 nM.
For the molecule `N#CCCc1cc2c3c(c(-c4ccc5cccnc5c4)nc2c(F)c1-c1cc(O)cc2ccccc12)NC(=O)CN3C1C2CNC1C2` (single isomer, unassigned) [Example 6b, 3-(1-((endo)-2-Azabicyclo[2.1.1]hexan-5-yl)-7-fluoro-8-(3-hydroxynaphthalen-1-yl)-3-oxo-5-(quinolin-7-yl)-1,2,3,4-tetrahydropyrazino[2,3-c]quinolin-9-yl)propanenitrile], the IC50 on KRAS G12D and at KRAS G12V was 1000 to 5000 nM in each case.
In the case of `C[C@H](Oc1nc2c(F)c(-c3cccc(Cl)c3Cl)c(CCC#N)cc2c2c1c(=O)c(N1CCCC1=O)cn2[C@H]1[C@H]2CN[C@@H]1C2)[C@@H]1CCCN1C` (single isomer, unassigned) [Example 25], the concentration for half-maximal inhibition (IC50) at KRAS G12D and on KRAS G12V was at most 100 nM throughout.
